Results reported in ChEMBL document CHEMBL3885881, “DrugMatrix”.

Species on record: Rattus norvegicus
Test: DrugMatrix - Regimen: Daily Repeat
Type: toxicity, organism-based, Sprague-Dawley
Design: regimen Daily Repeat, gender Male, age 6-8 weeks
Details: in vivo, po, 200 mg/kg, route oral GAVAGE, dose level Low, […]; for ABSOLUTE BASOPHIL / ABSOLUTE EOSINOPHIL / ABSOLUTE LYMPHOCYTE / ABSOLUTE MONOCYTE / ABSOLUTE SEGMENTED NEUTROPHIL / BASOPHIL / EOSINOPHIL / ERYTHROCYTE COUNT / HEMATOCRIT / HEMOGLOBIN / LEUKOCYTE COUNT / LYMPHOCYTE / MEAN CORPUSCULAR HEMOGLOBIN / MEAN CORPUSCULAR HEMOGLOBIN CONCENTRATION / MEAN CORPUSCULAR VOLUME / MONOCYTE / NEUTROPHIL / NUCLEATED RED BLOOD CELLS / PLATELET COUNT: tissue Blood
[1] = 72 h, tissue Plasma, time 3 day
[2] = 120 h, tissue Plasma, time 5 day

CCOc1ccc(NC(C)=O)cc1 [PHENACETIN]
ABSOLUTE BASOPHIL (72 h, time 3 day): 0 CELLS/uL
ABSOLUTE EOSINOPHIL (72 h, time 3 day): 0 CELLS/uL
ABSOLUTE LYMPHOCYTE (72 h, time 3 day): 12319.33 CELLS/uL
ABSOLUTE MONOCYTE (72 h, time 3 day): 297 CELLS/uL
ABSOLUTE SEGMENTED NEUTROPHIL (72 h, time 3 day): 1617 CELLS/uL
BASOPHIL (72 h, time 3 day): 0%
EOSINOPHIL (72 h, time 3 day): 0%
ERYTHROCYTE COUNT (72 h, time 3 day): 5.63 x10E6/uL
HEMATOCRIT (72 h, time 3 day): 34.9%
HEMOGLOBIN (72 h, time 3 day): 13.6 G/DL
LEUKOCYTE COUNT (72 h, time 3 day): 14.23 x10E3/uL
LYMPHOCYTE (72 h, time 3 day): 87%
MEAN CORPUSCULAR HEMOGLOBIN (72 h, time 3 day): 24.17 pg
MEAN CORPUSCULAR HEMOGLOBIN CONCENTRATION (72 h, time 3 day): 38.97 G/DL
MEAN CORPUSCULAR VOLUME (72 h, time 3 day): 62.03 fL
MONOCYTE (72 h, time 3 day): 2%
NEUTROPHIL (72 h, time 3 day): 11%
NUCLEATED RED BLOOD CELLS (72 h, time 3 day): 0 /100WBC
PLATELET COUNT (72 h, time 3 day): 1192.67 x10E3/uL
ALANINE AMINOTRANSFERASE [1]: 73 u/L
ALBUMIN [1]: 4.07 G/DL
ALKALINE PHOSPHATASE [1]: 405 u/L
ASPARTATE AMINOTRANSFERASE [1]: 98.33 u/L
BLOOD UREA NITROGEN [1]: 12 mg/dL
CARBON DIOXIDE [1]: 24.67 mmol/L
CHLORIDE [1]: 101 MEQ/L
CHOLESTEROL [1]: 65.33 mg/dL
CREATININE [1]: 0.2 mg/dL
GLUCOSE [1]: 172 mg/dL
LACTATE DEHYDROGENASE [1]: 186.33 u/L
LIPASE [1]: 11.33 u/L
PHOSPHORUS [1]: 11.6 mg/dL
POTASSIUM [1]: 6.01 MEQ/L
SODIUM [1]: 142.63 MEQ/L
TOTAL BILIRUBIN [1]: 0.2 mg/dL
TOTAL PROTEIN [1]: 5.6 G/DL
URIC ACID [1]: 1.77 mg/dL
ABSOLUTE BASOPHIL (120 h, time 5 day): 0 CELLS/uL
ABSOLUTE EOSINOPHIL (120 h, time 5 day): 0 CELLS/uL
ABSOLUTE LYMPHOCYTE (120 h, time 5 day): 14305.33 CELLS/uL
ABSOLUTE MONOCYTE (120 h, time 5 day): 246 CELLS/uL
ABSOLUTE SEGMENTED NEUTROPHIL (120 h, time 5 day): 1648.67 CELLS/uL
BASOPHIL (120 h, time 5 day): 0%
EOSINOPHIL (120 h, time 5 day): 0%
ERYTHROCYTE COUNT (120 h, time 5 day): 5.8 x10E6/uL
HEMATOCRIT (120 h, time 5 day): 35.23%
HEMOGLOBIN (120 h, time 5 day): 14.07 G/DL
LEUKOCYTE COUNT (120 h, time 5 day): 16.2 x10E3/uL
LYMPHOCYTE (120 h, time 5 day): 88%
MEAN CORPUSCULAR HEMOGLOBIN (120 h, time 5 day): 24.27 pg
MEAN CORPUSCULAR HEMOGLOBIN CONCENTRATION (120 h, time 5 day): 39.93 G/DL
MEAN CORPUSCULAR VOLUME (120 h, time 5 day): 60.8 fL
MONOCYTE (120 h, time 5 day): 1.67%
NEUTROPHIL (120 h, time 5 day): 10.33%
NUCLEATED RED BLOOD CELLS (120 h, time 5 day): 0 /100WBC
PLATELET COUNT (120 h, time 5 day): 1381.67 x10E3/uL
ALANINE AMINOTRANSFERASE [2]: 72.67 u/L
ALBUMIN [2]: 4.13 G/DL
ALKALINE PHOSPHATASE [2]: 403.33 u/L
ASPARTATE AMINOTRANSFERASE [2]: 95.33 u/L
BLOOD UREA NITROGEN [2]: 13.33 mg/dL
CARBON DIOXIDE [2]: 31.33 mmol/L
CHLORIDE [2]: 101.33 MEQ/L
CHOLESTEROL [2]: 68.67 mg/dL
CREATINE PHOSPHOKINASE [2]: 257.33 u/L
CREATININE [2]: 0.19 mg/dL
GLUCOSE [2]: 164.67 mg/dL
LACTATE DEHYDROGENASE [2]: 323.67 u/L
LIPASE [2]: 11.67 u/L
PHOSPHORUS [2]: 10.7 mg/dL
POTASSIUM [2]: 6.24 MEQ/L
SODIUM [2]: 143.9 MEQ/L
TOTAL BILIRUBIN [2]: 0.2 mg/dL
TOTAL PROTEIN [2]: 5.87 G/DL
URIC ACID [2]: 1.77 mg/dL
